EP4057003A1, “SELECTIVE SULFATE ANION DETECTION USING GUANYLATED FLUOROPHORES” (Universidad de Castilla la Mancha, priority 2021, dated 2022)

Legend:
[1] = Association constant from fluorescence titration data, Scatchard plot method; type: binding
Experimental: (§1) For ion interaction experiments, an aqueous solution of guanylated fluorophore (A) (10 µM) was titrated with different salt solutions (CaCl2, KCI, NaCl, NaCH3COO, KSCN, Na2CO3, Na2SO3, SDS, Na2HPO4, Na3PO4, AgNO3, MgSO4, CuSO4, and NiSO4). Different concentrations of ions were tested from 0 to 100 µM and steady-state fluorescence (SSF) spectra were acquired. All measurements were performed using 10 mm quartz cuvette (Hellma Analytics).
Chem. Commun. (Cambridge, United Kingdom) 2003, 2 (6), 792-793. https://doi.org/10.1039/b300098b)by the following equation (i): [SO4^(2−)] = (1)/(nKa)(1)/([F]0^(n−1))(1−α)/(α^n) [formula] where; α is defined as the ratio between concentration of free fluorophore (e.g. [F] and initial [F]0 fluorophore concentration, e.g. for the guanylated fluorophore (A), and can be determined from the fluorescence difference at any titration stage; n is the stoichiometry to the studied complex Fn(SO4^2-)m.
The data of figure 5d of example 3 was fitted to equation (i) as shown in: • Figure 7a for the 1:1 complex of guanylated fluorophore (A) and sulfate anion (i.e., (A)(SO4^2-), complex A) • Figure 7b for the a 2:1 complex of guanylated fluorophore (A) and sulfate anion (i.e., (A)2(SO4^2-), complex B)

[2] = Anion selectivity, fluorescence decrease on addition of anion in water (Figure 6a); details: 100 µM anion
Experimental: as §1
The selectivity of guanylated fluorophore (A) was tested with different anions (Figure 6a). […] It is important to emphasize that the selectivity of guanylated fluorophore (A) was tested in water, where the presence of cations like Ca^2+, Ni^2+, K^+, Na^+ or Mg^2+ or anions like HPO4^2- NO^3- and Cl^- normally presented in this media will not affect the final recognition values. To evaluate the selectivity to sulfate anions, additional experiments were conducted on water complex samples containing high concentrations of such ions as interfering.

[3] = pH titration of aqueous solution, UV-Vis absorption and steady-state fluorescence (pH dependence, pKa); type: physicochemical
Experimental: For experiments in water, stock solutions (1 mM) of guanylated fluorophore (A) in ethanol were used. All aqueous solutions were prepared by diluting the stock solution in Milli-Q water to the desired concentration and filtered with 0.22 µm filters before use. For the pH titration experiments, aqueous solutions of guanylated fluorophore (A) (10 µM) were titrated by the successive addition of small volumes (in the order of microliters) of HCI and NaOH solutions of different concentrations (0.01-10 M) to an initial volume of 25 mL to minimize changes in the sample volume. UV-Vis absorption, SSF spectra were recorded.
UV-Vis absorption spectra of guanylated fluorophore (A) were recorded at room temperature using a Cary 100 (Varian) spectrophotometer using a slit width of 0.4 nm and a scan rate of 600 nm/min.
(§2) Steady-state fluorescence (SSF) spectra of the samples were recorded employing an FLS920 (Edinburgh Instruments) spectrofluorometer equipped with a MCP-PMT (microchannel plate-photomultiplier tube) detector (R3809 model) and a TCSPC (time-correlated single photon counting) data acquisition card (TCC900 model). A TLC 50 temperature-controlled cuvette holder (Quantum Northwest) was employed for the measurements (temperature was controlled at 296 K, which corresponds to 22.85 °C). A Xe lamp of 450 W was used as the light source for SSF spectra. […]

[4] = Ion recognition: fluorescence change on addition of salts in water
Experimental: […] Different concentrations of ions were tested from 0 to 100 µM and steady-state fluorescence (SSF) spectra were acquired. All measurements were performed using 10 mm quartz cuvette (Hellma Analytics).
as §2
Although the fluorescence intensity of guanylated fluorophore (A) was the same for most of the ions, the presence of sulfate anions (added to a concentration of 100 µM) caused -2-fold fluorescence quenching in guanylated fluorophore (A) (at a concentration of 10 µM) (Figure 5a). […] More importantly, for the same titration a gradual fluorescence decrease without any shift in the emission spectra was observed (see Figure 5c).
Figure 6b collects the fluorescence changes (%) of guanylated fluorophore (A) when successive quantities of 100 µM of anions are added over 5µM solution of A in water.

pKa ([3]; aqueous solution (Milli-Q water), water, from absorption spectra at different pH (A / AH^+ equilibrium)): 11.1
intensity of the fluorescence and the wavelength of emission ([3]; pH in the range of 5-12, λex 272 nm): only mildly affected
SMILES: CC(C)NC(=Nc1ccc2c(c1)Cc1ccccc1-2)NC(C)C [guanylated fluorophore (A), 2-(9H-fluoren-2-yl)-1,3-diisopropylguanidine]
Ka ([1]; 1:1 complex (A)(SO4^2-), complex A): 1.26x10^5
Ka ([1]; 2:1 complex (A)2(SO4^2-), complex B): 1.55x10^10
sensitivity ([2]; HPO4^2-): no sensitivity was found
sensitivity ([2]; PO4^3-): no sensitivity was found
sensitivity ([2]; SO3^2-): sensitivity was not observed
sensitivity ([2]; dodecyl sulfate (SDS)): sensitivity was not observed
fluorescence changes (%) / emission intensity ([4]; successive additions of 100 µM of anions to 5 µM solution in water (Figure 6b)): exclusively decreases when sulfate anions are added
fluorescence quenching ([4]; sulfate anions 100 µM, fluorophore 10 µM, water): -2 fold
